Consider 13 compounds from US20220175682A1, “Siremadlin Succinate” (Novartis AG, priority 2019, published 2022).

Data set [1] can be described thus: FT4 powder rheometer powder characterization (8-parameter model). Type of data set: physicochemical. Details: MPS-15: unit not given here. As to conditions: for sBFE (Specific Basic Flow Energy): FT4, Group 1, 25 mm_1C_Split_Rep+VFR_R01; for sBFE (Specific Basic Flow Energy) / SI (Stability Index) / MPS-15 (major Principal Stress @ 15 kPa) / FF-15 (Flow function @ 15 kPa) / CBD-15 (Consolidated Bulk Density @ 15 kPa) / CPS (Compressibility) / WFA (Wall Friction Angle): reference powders; for SI (Stability Index) / SI / sBFE: FT4, Group 1; for SI (Stability Index) / FF-15 (Flow function @ 15 kPa): dimensionless; for MPS-15 (major Principal Stress @ 15 kPa): FT4, Group 2, 25 mm_Shear_15 kPa; for FF-15 (Flow function @ 15 kPa) / CBD-15 (Consolidated Bulk Density @ 15 kPa): FT4, Group 2, shear cell; for CPS (Compressibility): FT4, Group 3, 25 mm_Compressibility_1-15 kPa; for WFA (Wall Friction Angle): FT4, Group 4, 25 mm_Wall Friction_30 kPa; for SI / sBFE / CBD-15 / FF-15 / MPS-15 / CPS / WFA: HDM201-BBA batches; for CBD-15 / FF-15 / MPS-15: FT4, Group 2; for CPS: FT4, Group 3; for WFA: FT4, Group 4. As for the experimental part:
A standard FT4 powder rheometer offers at least 6 powder characterization methods (per measurement cylinder diameter). Those selected for analysis are
25 mm_1C_Split_Rep+VFR_R01;
25 mm_Compressibility_1-15 kPa;
25 mm_Wall Friction_30 kPa.
Each characterization method produces several kind of response parameters (default or manually selectable). A set of complete powder characterizations (at least 22 response parameters per row) were measured for more than 350 different powders and more than 60 different compounds using a standard FT4 powder rheometer and compiled in a database. The various parameters were correlated to the respective filling behavior in order to determine a set of parameters and parameter ranges which is capable of distinguishing and predicting filling behavior of powders.
sBFE: Specific Basic Flow Energy (mJ/g): obtained from BFE (obtained from standard FT4 test platform) divided by the split mass of the sample.
SI: Stability Index, standard variable, dimensionless.
SE: Specific Energy (mJ/g), standard variable
MPS @ 15 kPa: major Principal Stress, standard variable
FF @ 15 kPa: Flow function (dimensionless), from shear cell, standard variable
CBD @ 15 kPa: Consolidated Bulk Density (g/mL), standard variable (from shear cell)
CPS: Compressibility (%), standard variable
WFA: Wall Friction Angle (degree°), standard variable.

Data set [2] is described as follows: Particle size distribution by laser light diffraction (LLD). Type of data set: physicochemical. As to conditions: laser light diffraction, pin-milled HDM201-BBA batches. The source says:
Values are given in micrometer, measurements done by laser light diffraction (LLD).

Structures are written as SMILES.

In the case of `CN(C)C(=O)c1cc2cnc(Nc3ccc(N4CCNCC4)cn3)nc2n1C1CCCC1` [1. LEE011, reference compound], in data set [1], the “sBFE (Specific Basic Flow Energy)” value came out at 38 mJ/g, the “SI (Stability Index)” value is recorded as 0.9, the MPS-15 (major Principal Stress @ 15 kPa) came to 42 kPa and the “FF-15 (Flow function @ 15 kPa)” value is on record as 5.8. For the same compound, in data set [1], the “CBD-15 (Consolidated Bulk Density @ 15 kPa)” value worked out at 0.6 g/mL, the “CPS (Compressibility)” value is listed as 26% and the “WFA (Wall Friction Angle)” value was 40 °.
With `OC[C@H]1O[C@@H](O[C@H]2[C@H](O)[C@@H](O)[C@@H](O)O[C@@H]2CO)[C@H](O)[C@@H](O)[C@H]1O` [4. Lactose 125M, reference compound], in data set [1], the “sBFE (Specific Basic Flow Energy)” value is 16 mJ/g, the “CPS (Compressibility)” value is recorded as 13% and the “WFA (Wall Friction Angle)” value stood at 27 °.
With `CC1(N)CCN(c2cccnc2NC(=O)c2nc(-c3ncccc3C(F)(F)F)cnc2N)CC1` [5. LXS196, reference compound], in data set [1], the “sBFE (Specific Basic Flow Energy)” value amounted to 26 mJ/g, the “SI (Stability Index)” value is reported as 1.1, the MPS-15 (major Principal Stress @ 15 kPa) is 27 kPa and the “FF-15 (Flow function @ 15 kPa)” value was 15. Moreover, in data set [1], the “CBD-15 (Consolidated Bulk Density @ 15 kPa)” value was 0.7 g/mL, the “CPS (Compressibility)” value came out at 11% and the “WFA (Wall Friction Angle)” value worked out at 29 °.
Turning to `CCC(=O)N1CC[C@H](Nc2ncnc3c2CN(c2cnc(OC)c(C(F)(F)F)c2)CC3)C1` [6. CDZ173, reference compound], in data set [1], the “sBFE (Specific Basic Flow Energy)” value worked out at 29 mJ/g, the “SI (Stability Index)” value was found to be 1.5, the MPS-15 (major Principal Stress @ 15 kPa) is 50 kPa and the “FF-15 (Flow function @ 15 kPa)” value is recorded as 1.4. For the same compound, in data set [1], the “CBD-15 (Consolidated Bulk Density @ 15 kPa)” value turned out to be 0.26 g/mL, the “CPS (Compressibility)” value turned out to be 43% and the “WFA (Wall Friction Angle)” value is 50 °.
Take `CCC(=O)N1CC[C@H](Nc2ncnc3c2CN(c2cnc(OC)c(C(F)(F)F)c2)CC3)C1` [7. CDZ173, reference compound]: in data set [1], the “sBFE (Specific Basic Flow Energy)” value worked out at 82 mJ/g, the “SI (Stability Index)” value was 1.1, the MPS-15 (major Principal Stress @ 15 kPa) was determined as 9.6 kPa and the “FF-15 (Flow function @ 15 kPa)” value stood at 5. For the same compound, in data set [1], the “CBD-15 (Consolidated Bulk Density @ 15 kPa)” value is 0.2 g/mL, the “CPS (Compressibility)” value was found to be 56% and the “WFA (Wall Friction Angle)” value amounted to 37 °.
In data set [2] (listed as A1), `COc1ncc(-c2nc3c(n2C(C)C)[C@H](c2ccc(Cl)cc2)N(c2cc(Cl)cn(C)c2=O)C3=O)c(OC)n1.O=C(O)CCC(=O)O` [Batch A1] had an X10 of 1 micrometer, an X50 of 5 micrometer and an X90 of 14 micrometer. In data set [1] (listed as A1), this compound had an SI of 1.07, a sBFE of 6 mJ/g, a CBD-15 of 0.53 g/mL and an FF-15 of 2.5. In addition, in data set [1] (listed as A1), the MPS-15 is given as 32, the CPS worked out at 43% and the WFA was 35 °.
In data set [2] (listed as A2), `COc1ncc(-c2nc3c(n2C(C)C)[C@H](c2ccc(Cl)cc2)N(c2cc(Cl)cn(C)c2=O)C3=O)c(OC)n1.O=C(O)CCC(=O)O` [Batch A2] returned an X10 of 4 micrometer, an X50 of 28 micrometer and an X90 of 60 micrometer. In data set [1] (listed as A2), this compound had an SI of 1.11, a sBFE of 9 mJ/g, a CBD-15 of 0.68 g/mL and an FF-15 of 5.5. Moreover, in data set [1] (listed as A2), the MPS-15 amounted to 29, the CPS turned out to be 32% and the WFA is given as 34 °.
In data set [2] (listed as A3), `COc1ncc(-c2nc3c(n2C(C)C)[C@H](c2ccc(Cl)cc2)N(c2cc(Cl)cn(C)c2=O)C3=O)c(OC)n1.O=C(O)CCC(=O)O` [Batch A3] came in with an X10 of 9 micrometer, an X50 of 45 micrometer and an X90 of 95 micrometer. In data set [1] (listed as A3), this compound gave an SI of 1.12, a sBFE of 20 mJ/g, a CBD-15 of 0.69 g/mL and an FF-15 of 9.4. In data set [1] (listed as A3), this compound registered an MPS-15 of 29, a CPS of 15% and a WFA of 34 °.
As to `COc1ncc(-c2nc3c(n2C(C)C)[C@H](c2ccc(Cl)cc2)N(c2cc(Cl)cn(C)c2=O)C3=O)c(OC)n1.O=C(O)CCC(=O)O` [Batch B1], in data set [2] (listed as B1), the X10 is 3 micrometer, the X50 was determined as 16 micrometer and the X90 is reported as 50 micrometer. Besides, in data set [1] (listed as B1), the SI was determined as 1.14, the sBFE is reported as 6 mJ/g, the CBD-15 turned out to be 0.64 g/mL and the FF-15 is listed as 3.8. Also, in data set [1] (listed as B1), the MPS-15 was determined as 29, the CPS is recorded as 31% and the WFA amounted to 34 °.
Turning to `COc1ncc(-c2nc3c(n2C(C)C)[C@H](c2ccc(Cl)cc2)N(c2cc(Cl)cn(C)c2=O)C3=O)c(OC)n1.O=C(O)CCC(=O)O` [Batch B2], in data set [2] (listed as B2), the X10 is given as 4 micrometer, the X50 amounted to 21 micrometer and the X90 worked out at 71 micrometer. Besides, in data set [1] (listed as B2), the SI is 1.01, the sBFE was 8 mJ/g, the CBD-15 came to 0.65 g/mL and the FF-15 was found to be 3.8. In data set [1] (listed as B2), this compound had an MPS-15 of 28, a CPS of 38% and a WFA of 35 °.
In data set [2] (listed as B3), `COc1ncc(-c2nc3c(n2C(C)C)[C@H](c2ccc(Cl)cc2)N(c2cc(Cl)cn(C)c2=O)C3=O)c(OC)n1.O=C(O)CCC(=O)O` [Batch B3] displayed an X10 of 5 micrometer, an X50 of 26 micrometer and an X90 of 87 micrometer. For the same compound, in data set [1] (listed as B3), the SI is given as 1.11, the sBFE worked out at 9 mJ/g, the CBD-15 is 0.70 g/mL and the FF-15 came to 5.3. For the same compound, in data set [1] (listed as B3), the MPS-15 is listed as 29, the CPS is reported as 26% and the WFA came to 35 °.
In data set [2] (listed as C1), `COc1ncc(-c2nc3c(n2C(C)C)[C@H](c2ccc(Cl)cc2)N(c2cc(Cl)cn(C)c2=O)C3=O)c(OC)n1.O=C(O)CCC(=O)O` [Batch C1] gave an X10 of 21 micrometer, an X50 of 69 micrometer and an X90 of 163 micrometer. In data set [1] (listed as C1), this compound gave an SI of 1.15, a sBFE of 33 mJ/g, a CBD-15 of 0.68 g/mL and an FF-15 of 9.0. In data set [1] (listed as C1), this compound showed an MPS-15 of 31, a CPS of 14% and a WFA of 34 °.
As to `COc1ncc(-c2nc3c(n2C(C)C)[C@H](c2ccc(Cl)cc2)N(c2cc(Cl)cn(C)c2=O)C3=O)c(OC)n1.O=C(O)CCC(=O)O` [Batch C2], in data set [2] (listed as C2), the X10 is listed as 6 micrometer, the X50 is given as 35 micrometer and the X90 was 83 micrometer. Also, in data set [1] (listed as C2), the SI worked out at 1.01, the sBFE worked out at 12 mJ/g, the CBD-15 was 0.70 g/mL and the FF-15 amounted to 6.4. In data set [1] (listed as C2), this compound yielded an MPS-15 of 29, a CPS of 25% and a WFA of 35 °.
